According to the supplement of paper PMC11208160:

Assay: recombinant UMI read abundance after kanamycin selection (control-corrected) (log10(CPM+1)); higher = more efficient recombination; extreme values may be limits of the assay; sequences stand for … in AGTGCAGAGAAAATCGGCCAGTTTTCTCTGCCTGCAGTCCGCATGCCGTGGGACCCCTTGGGTTCTAACCTGTTGCCTAGATTTATGCAGCGGACTGCCTTTCTCCCAAAGTGATAAACCGG…AGGTTGGTTTCACT; site = the 11-nt donor
Procedure, shortened: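 Under IPTG (0.07 mM) plus kanamycin, or without selection, Escherichia coli carrying a UMI-tagged donor and donor-binding-loop pair library and a target plasmid for the IS621 bridge recombinase were plated in two replicates. Recombinant UMIs were PCR-amplified across the donor–target junction and sequenced. Counts were converted to CPM, averaged over replicates, scaled by control-derived factors and reported as log10(CPM+1).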
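Also: IS621 bridge recombinase in Escherichia coli cells against a fixed T5 target plasmid.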

| Sequence | recombinant UMI read abundance (log10) |
| --- | --- |
| CAATGCTCATGGACCGGTTTTCCCGGTAATCCGTATTTGAT (site CAATGCTCTTT) | 0.993 |
| CAATTAACATGGACCGGTTTTCCCGGTAATCCGTATTTGTT (site CAATTAACTAA) | 0.00834 |
| CAATTCCCATGGACCGGTTTTCCCGGTAATCCGTATTTGCT (site AAATTCCCTAG) | 0 |
| CAATTCCCATGGACCGGTTTTCCCGGTAATCCGTATTTGCT (site CAAATCCCTAG) | 0.763 |
| CAATTCCCATGGACCGGTTTTCCCGGTAATCCGTATTTGCT (site CAACTCCCTAG) | 1.16 |
| CAATTCCCATGGACCGGTTTTCCCGGTAATCCGTATTTGCT (site CAAGTCCCTAG) | 1.05 |
| CAATTCCCATGGACCGGTTTTCCCGGTAATCCGTATTTGCT (site CAATACCCTAG) | 0.712 |
| CAATTCCCATGGACCGGTTTTCCCGGTAATCCGTATTTGCT (site CAATCCCCTAG) | 0.539 |
| CAATTCCCATGGACCGGTTTTCCCGGTAATCCGTATTTGCT (site CAATGCCCTAG) | 0 |
| CAATTCCCATGGACCGGTTTTCCCGGTAATCCGTATTTGCT (site CAATTACCTAG) | 0 |
| CAATTCCCATGGACCGGTTTTCCCGGTAATCCGTATTTGCT (site CAATTCACTAG) | 0 |
| CAATTCCCATGGACCGGTTTTCCCGGTAATCCGTATTTGCT (site CAATTCCCTAA) | 0.188 |
| CAATTCCCATGGACCGGTTTTCCCGGTAATCCGTATTTGCT (site CAATTCCCTAC) | 0.184 |
| CAATTCCCATGGACCGGTTTTCCCGGTAATCCGTATTTGCT (site CAATTCCCTAG) | 0.879 |
| CAATTCCCATGGACCGGTTTTCCCGGTAATCCGTATTTGCT (site CAATTCCCTAT) | 1.61 |
| CAATTCCCATGGACCGGTTTTCCCGGTAATCCGTATTTGCT (site CAATTCCCTCG) | 0.178 |
| CAATTCCCATGGACCGGTTTTCCCGGTAATCCGTATTTGCT (site CAATTCCCTGG) | 0 |
| CAATTCCCATGGACCGGTTTTCCCGGTAATCCGTATTTGCT (site CAATTCCCTTG) | 0.615 |
| CAATTCCCATGGACCGGTTTTCCCGGTAATCCGTATTTGCT (site CAATTCGCTAG) | 0.00609 |
| CAATTCCCATGGACCGGTTTTCCCGGTAATCCGTATTTGCT (site CAATTCTCTAG) | 2.13 |
| CAATTCCCATGGACCGGTTTTCCCGGTAATCCGTATTTGCT (site CAATTGCCTAG) | 0 |
| CAATTCCCATGGACCGGTTTTCCCGGTAATCCGTATTTGCT (site CAATTTCCTAG) | 0 |
| CAATTCCCATGGACCGGTTTTCCCGGTAATCCGTATTTGCT (site CACTTCCCTAG) | 0.171 |
| CAATTCCCATGGACCGGTTTTCCCGGTAATCCGTATTTGCT (site CAGTTCCCTAG) | 0 |
| CAATTCCCATGGACCGGTTTTCCCGGTAATCCGTATTTGCT (site CATTTCCCTAG) | 0 |

| Sequence | recombinant UMI read abundance (log10) |
| --- | --- |
| CAATTCCCATGGACCGGTTTTCCCGGTAATCCGTATTTGCT (site CCATTCCCTAG) | 1.17 |
| CAATTCCCATGGACCGGTTTTCCCGGTAATCCGTATTTGCT (site CGATTCCCTAG) | 0 |
| CAATTCCCATGGACCGGTTTTCCCGGTAATCCGTATTTGCT (site CTATTCCCTAG) | 0 |
| CAATTCCCATGGACCGGTTTTCCCGGTAATCCGTATTTGCT (site GAATTCCCTAG) | 0 |
| CAATTCCCATGGACCGGTTTTCCCGGTAATCCGTATTTGCT (site TAATTCCCTAG) | 0.428 |
| CAATTCGCATGGACCGGTTTTCCCGGTAATCCGTATTTGCT (site CAATTCACTAG) | 1.08 |
| CAATTCGCATGGACCGGTTTTCCCGGTAATCCGTATTTGCT (site CAATTCCCTAG) | 0 |
| CAATTCGCATGGACCGGTTTTCCCGGTAATCCGTATTTGCT (site CAATTCGCTAG) | 0.564 |
| CAATTCGCATGGACCGGTTTTCCCGGTAATCCGTATTTGCT (site CAATTCTCTAG) | 0 |
| CAATTCTCATGGACCGGTTTTCCCGGTAATCCGTATTTGAA (site CAATACTCTTT) | 0.00453 |
| CAATTCTCATGGACCGGTTTTCCCGGTAATCCGTATTTGAA (site CAATCCTCTTT) | 0.327 |
| CAATTCTCATGGACCGGTTTTCCCGGTAATCCGTATTTGAA (site CAATGCTCTTT) | 0.0109 |
| CAATTCTCATGGACCGGTTTTCCCGGTAATCCGTATTTGAA (site CAATTCTCTTT) | 2.5 |
| CACAACGCATGGACCGGTTTTCCCGGTAATCCGTATTTGCA (site CACAACGCTTG) | 2.49 |
| CACACCCCATGGACCGGTTTTCCCGGTAATCCGTATTTGCC (site CACACCCCTGG) | 1.91 |
| CACACCTCATGGACCGGTTTTCCCGGTAATCCGTATTTGCC (site CACACCTCTGG) | 2.87 |
| CACACCTCATGGACCGGTTTTCCCGGTAATCCGTATTTGCC (site CACCCCTCTGG) | 1.27 |
| CACACCTCATGGACCGGTTTTCCCGGTAATCCGTATTTGCC (site CACGCCTCTGG) | 0 |
| CACACCTCATGGACCGGTTTTCCCGGTAATCCGTATTTGCC (site CACTCCTCTGG) | 1.97 |
| CACAGATCATGGACCGGTTTTCCCGGTAATCCGTATTTGCT (site CACAGATCTAG) | 2.32 |
| CACAGCGCATGGACCGGTTTTCCCGGTAATCCGTATTTGTT (site CACAGCGCTAA) | 1.99 |
| CACAGGTCATGGACCGGTTTTCCCGGTAATCCGTATTTGAT (site CACAGGTCTAT) | 2.14 |
| CACATGACATGGACCGGTTTTCCCGGTAATCCGTATTTGGA (site CACATGACTTC) | 1.1 |
| CACATGTCATGGACCGGTTTTCCCGGTAATCCGTATTTGCA (site CACATGTCTTG) | 2.4 |
| CACATTTCATGGACCGGTTTTCCCGGTAATCCGTATTTGAA (site CACATTTCTTT) | 0 |

| Sequence | recombinant UMI read abundance (log10) |
| --- | --- |
| CACCACACATGGACCGGTTTTCCCGGTAATCCGTATTTGTA (site CACCACACTTA) | 2.13 |
| CACCACACATGGACCGGTTTTCCCGGTAATCCGTATTTGTA (site CCCCACACTTA) | 0.591 |
| CACCACACATGGACCGGTTTTCCCGGTAATCCGTATTTGTA (site CGCCACACTTA) | 0.29 |
| CACCACACATGGACCGGTTTTCCCGGTAATCCGTATTTGTA (site CTCCACACTTA) | 0.179 |
| CACCCGACATGGACCGGTTTTCCCGGTAATCCGTATTTGTA (site CACCCGACTTA) | 1.32 |
| CACCCGTCATGGACCGGTTTTCCCGGTAATCCGTATTTGTT (site CACCCGTCTAA) | 2.2 |
| CACCGATCATGGACCGGTTTTCCCGGTAATCCGTATTTGCC (site CACCGATCTGG) | 2.44 |
| CACCTTACATGGACCGGTTTTCCCGGTAATCCGTATTTGCC (site CACCTTACTGG) | 1.46 |
| CACGACACATGGACCGGTTTTCCCGGTAATCCGTATTTGTG (site CACGACACTCA) | 1.41 |
| CACGATTCATGGACCGGTTTTCCCGGTAATCCGTATTTGCC (site CACGATTCTGG) | 2.11 |
| CACGCAGCATGGACCGGTTTTCCCGGTAATCCGTATTTGCG (site CACGCAGCTCG) | 1.32 |
| CACGCGCCATGGACCGGTTTTCCCGGTAATCCGTATTTGTG (site CAAGCGCCTCA) | 0.00364 |
| CACGCGCCATGGACCGGTTTTCCCGGTAATCCGTATTTGTG (site CACGCGCCTCA) | 0.00403 |
| CACGCGCCATGGACCGGTTTTCCCGGTAATCCGTATTTGTG (site CAGGCGCCTCA) | 0.056 |
| CACGCGCCATGGACCGGTTTTCCCGGTAATCCGTATTTGTG (site CATGCGCCTCA) | 0 |
| CACGCGTCATGGACCGGTTTTCCCGGTAATCCGTATTTGGG (site CACGCGTCTCC) | 1.04 |
| CACGGCCCATGGACCGGTTTTCCCGGTAATCCGTATTTGTT (site AACGGCCCTAA) | 0.0126 |
| CACGGCCCATGGACCGGTTTTCCCGGTAATCCGTATTTGTT (site CAAGGCCCTAA) | 0.0138 |
| CACGGCCCATGGACCGGTTTTCCCGGTAATCCGTATTTGTT (site CACAGCCCTAA) | 0.215 |
| CACGGCCCATGGACCGGTTTTCCCGGTAATCCGTATTTGTT (site CACCGCCCTAA) | 0.0224 |
| CACGGCCCATGGACCGGTTTTCCCGGTAATCCGTATTTGTT (site CACGACCCTAA) | 0.652 |
| CACGGCCCATGGACCGGTTTTCCCGGTAATCCGTATTTGTT (site CACGCCCCTAA) | 0.0151 |
| CACGGCCCATGGACCGGTTTTCCCGGTAATCCGTATTTGTT (site CACGGACCTAA) | 0.0168 |
| CACGGCCCATGGACCGGTTTTCCCGGTAATCCGTATTTGTT (site CACGGCACTAA) | 0.0172 |
| CACGGCCCATGGACCGGTTTTCCCGGTAATCCGTATTTGTT (site CACGGCCCTAA) | 0.135 |
